# In patent US8053476B2, “Method for treating peripheral neuropathic pain” (UCB Pharma GmbH, priority 2001, dated 2011):
# How the values were obtained:
# rat [1] = test: Formalin test, rat: prolonged inflammatory pain (weighted pain score); type: in vivo; conditions: i.p. just prior to formalin injection, 5-40 mg/kg
# Procedure: The formalin test is a chemically-induced tonic pain model in which biphasic changes of nociceptive behaviour are assessed and spinal/supraspinal plasticity of nociception is considered as a molecular basis for neuropathic pain particularly during the second (=late) phase of the test, during which most clinically used drugs against neuropathic pain are active.
# The compound was tested for anti-nociceptive properties by use of the weighted behavioural scoring method: Freely moving animals underwent observational assessment of the position of the left hind paw according to a rating score scaled 0-3 before and 10, 20, 30 and 40 min after injection of 0.05 ml of sterile 2.5% formalin under the skin on the dorsal surface of the paw.
# rat [2] = test: Randall-Selitto paw pressure test, carrageenan induced acute inflammation; type: in vivo; conditions: for Mechanical nociceptive threshold pressure, Carrageenan + SPM 927: ±SEM, n=12
# Procedure: Further potential anti-nociceptive efficacy of SPM 927 was assessed in a rat experimental model of acute inflammation using a modified Randall and Selitto procedure. Acute inflammation is induced by injection of s.c. carrageenan (1.0 mg in 0.1 ml saline/paw), an unspecific inflammatory agent, into the plantar surface of one hind paw of the animal. Mechanical sensitivity and nociceptive thresholds were measured using an algesimeter device that exerts a constantly increasing mechanical force (10 mm Hg/sec) on the inflammed hind paw. The mechanical nociceptive threshold is defined as the pressure (mm Hg) at which the rat vocalises or struggles or withdraws its paw. Since its original description, the Randall and Selitto mechanical paw pressure test has become a standard method for testing the efficacy of new compounds for alleviating acute inflammatory pain.
# SPM 927 or vehicle (sterile water, 0.04 […]) was administered i.p. 1 hr and 45 minutes after carrageenan, meaning 15 to 20 minutes before the start of behavioural testing. As compared to the response threshold of vehicle-treated controls, an increase in the pressure required to produce a behavioural response is interpreted as antinociception.
# rat [3] = test: Chronic constriction injury (CCI, Bennett-model), thermal hyperalgesia (Hargreaves); type: in vivo; conditions: for Withdrawal latency, Post-operative + SPM 927: ligated hind paw, radiant heat, ±SEM
# Procedure: (§1) The effectiveness of SPM 927 in reducing spontaneous chronic pain, mechanical allodynia, and thermal hyperalgesia was tested using the chronic constriction injury (CCI) model of peripheral neuropathy, one of the best characterised in vivo animal models used to study chronic pain due to peripheral nerve injury. In this model, loose ligatures are placed around the sciatic nerve, which produces axonal swelling and a partial deafferentation manifested as a significant but incomplete loss of axons in the distal portion of the peripheral nerve. One of the prominent behaviours seen following sciatic nerve ligation is the appearance of hind paw guarding, thought to be an indication of an ongoing spontaneous chronic pain. Support for this idea is derived from reports of increased spinal cord neural activity, and increased spontaneous neuronal discharge in spinothalamic tract neurons and in the ventrobasal thalamus in the absence of overt peripheral stimulation. In addition to the appearance of spontaneous pain behaviours, several abnormalities in stimulus evoked pain occur as a result of CCI, including thermal hyperalgesia and mechanical allodynia. The development of these abnormal stimulus-evoked pains has also been reported as occurring in areas outside the territory of the damaged nerve, areas innervated by uninjured nerves.
# Behavioural tests for thermal hyperalgesia, and mechanical allodynia were conducted to evaluate different components of neuropathic pain. Baseline data for each test was collected prior to any experimental procedure; in addition, all animals were tested for the development of chronic pain behaviours 13-25 days after CCI surgery 1 day prior to the day of vehicle (0.04 ml sterile water/10 g body weight) or drug administration and after vehicle or drug administration. The sequence of the pain-related behaviour tests was (1) thermal hyperalgesia, (2) mechanical allodynia in order to minimise the influence of one test on the result of the next. The testing procedures and results are presented separately for each aspect of chronic pain. Either 0 (vehicle, 0.04 ml/10 g body weight), 5, 10, 20 or 40 mg/kg of SPM 927 (n=7-23/group) was administered i.p. 15 minutes before the first behavioural test.
# (1) Thermal hyperalgesia was assessed by means of withdrawal latency in response to radiant heat applied to the subplantar surface of the ligated rat hind paw according to Hargreaves. As compared to the baseline latency (s), a significant decrease in the (postoperative) latency of foot withdrawal in response to the thermal stimulus was interpreted as indicating the presence of thermal hyperalgesia following chronic constriction injury.
# female Wistar rats = test: Freund's complete adjuvant arthritis model, paw pressure test (Randall Selitto), vocalisation; type: in vivo, rat
# Procedure: Experiments were performed in female Wistar rats weighing 80-90 g at the beginning of the experiments. Arthritis was induced by intraplantar injection of Freund's complete adjuvant (FCA, 0.1 ml) to one hindpaw. Drugs were given on day 11 after FCA injection in animals which developed systemic secondary arthritic symptoms as assessed by visual inspection. Mechanical hyperalgesia was than acutely applied and measured by means of the paw pressure test (Randall Selitto method) and supraspinal vocalisation as the biological endpoint of the nociceptive reaction. Measurements were taken at 0 min (before drug injection) and 15 min, 30 min, 60 min, and 24 h after drug injection and all data are expressed as percent of maximal possible effect (% MPE).
# 10 groups of 15 rats were used and received the following treatments: […]
# rat [4] = test: Chronic constriction injury (CCI, Bennett-model), mechanical allodynia (Von Frey pressure algometer); type: in vivo; conditions: for Pressure to elicit foot withdrawal, Post-operative + SPM 927: ligated hind paw, ±SEM
# Procedure: as §1
# Behavioural tests for thermal hyperalgesia, and mechanical allodynia were conducted to evaluate different components of neuropathic pain. Baseline data for each test was collected prior to any experimental procedure; in addition, all animals were tested for the development of chronic pain behaviours 13-25 days after CCI surgery 1 day prior to the day of vehicle (0.04 ml sterile water/10 g body weight) or drug administration and after vehicle or drug administration. […]
# Mechanical sensitivity and allodynia of the ligated rat hind paw was quantified by brisk foot withdrawal in response to normally innocuous mechanical stimuli as described previously. […]
compound,measurement,setting,value
"COC[C@@H](NC(C)=O)C(=O)NCc1ccccc1 [SPM 927, (R)-2-acetamide-N-benzyl-3-methoxypropionamide]",Effect on formalin-induced nociceptive behaviour,rat [1],dose dependent reduction of the formalin-induced tonic inflammatory nociceptive behaviour
same,"Mechanical nociceptive threshold pressure, Carrageenan + SPM 927",rat [2]; 20 mg/kg i.p. 1 hr 45 min after carrageenan,164.8 ± 13.5 mm Hg
same,"Mechanical nociceptive threshold pressure, Carrageenan + SPM 927",rat [2]; 40 mg/kg i.p. 1 hr 45 min after carrageenan,232.7 ± 22.0 mm Hg
same,Effect on carrageenan induced mechanical hyperalgesia,rat [2]; 20 and 40 mg/kg i.p.,markedly reduced the mechanical hyperalgesia induced by carrageenan
same,"Withdrawal latency, Post-operative + SPM 927",rat [3]; 5 mg/kg i.p.,9.1 ± 0.97 s
same,"Withdrawal latency, Post-operative + SPM 927",rat [3]; 10 mg/kg i.p.,8.0 ± 0.58 s
same,Dose at which maximum effect on thermal hyperalgesia was seen,rat [3]; i.p.,20 mg/kg
same,Effect on CCI-induced thermal hyperalgesia,"rat [3]; i.p., significant only at 20 and 40 mg/kg",dose dependently reduced chronic constriction injury-induced thermal hyperalgesia
same,Anti-inflammatory effect in FCA arthritis,female Wistar rats; 30 mg/kg early (with FCA),no anti-inflammatory effects
same,Anti-nociceptive effect in FCA arthritis,"female Wistar rats; 5-40 mg/kg acute, significant at 30 and 40 mg/kg",dose-dependent anti-nociceptive
same,% MPE,"female Wistar rats; FCA rats, 5 mg/kg acute (day 11), 15 min",−5 % MPE
same,% MPE,"female Wistar rats; FCA rats, 5 mg/kg acute (day 11), 30 min",−5 % MPE
same,% MPE,"female Wistar rats; FCA rats, 5 mg/kg acute (day 11), 60 min",−12 % MPE
same,% MPE,"female Wistar rats; FCA rats, 5 mg/kg acute (day 11), 24 h",−14 % MPE
same,% MPE,"female Wistar rats; FCA rats, 10 mg/kg acute (day 11), 15 min",+7 % MPE
same,% MPE,"female Wistar rats; FCA rats, 10 mg/kg acute (day 11), 30 min",−2 % MPE
same,% MPE,"female Wistar rats; FCA rats, 10 mg/kg acute (day 11), 60 min",0 % MPE
same,% MPE,"female Wistar rats; FCA rats, 10 mg/kg acute (day 11), 24 h",−5 % MPE
same,% MPE,"female Wistar rats; FCA rats, 20 mg/kg acute (day 11), 15 min",+1 % MPE
same,% MPE,"female Wistar rats; FCA rats, 20 mg/kg acute (day 11), 30 min",−20 % MPE
same,% MPE,"female Wistar rats; FCA rats, 20 mg/kg acute (day 11), 60 min",−9 % MPE
same,% MPE,"female Wistar rats; FCA rats, 20 mg/kg acute (day 11), 24 h",−20 % MPE
same,% MPE,"female Wistar rats; FCA rats, 30 mg/kg acute (day 11), 15 min",+58 % MPE
same,% MPE,"female Wistar rats; FCA rats, 30 mg/kg acute (day 11), 30 min",+33 % MPE
same,% MPE,"female Wistar rats; FCA rats, 30 mg/kg acute (day 11), 60 min",+16 % MPE
same,% MPE,"female Wistar rats; FCA rats, 30 mg/kg acute (day 11), 24 h",−8 % MPE
same,% MPE,"female Wistar rats; FCA rats, 30 mg/kg early (with FCA), anti-inflammatory effects group, 15 min",−14 % MPE
same,% MPE,"female Wistar rats; FCA rats, 30 mg/kg early (with FCA), anti-inflammatory effects group, 30 min",−7 % MPE
same,% MPE,"female Wistar rats; FCA rats, 30 mg/kg early (with FCA), anti-inflammatory effects group, 60 min",−3 % MPE
same,% MPE,"female Wistar rats; FCA rats, 30 mg/kg early (with FCA), anti-inflammatory effects group, 24 h",−11 % MPE
same,% MPE,"female Wistar rats; FCA rats, 40 mg/kg acute (day 11), 15 min",+100 % MPE
same,% MPE,"female Wistar rats; FCA rats, 40 mg/kg acute (day 11), 30 min",+100 % MPE
same,% MPE,"female Wistar rats; FCA rats, 40 mg/kg acute (day 11), 60 min",+14 % MPE
same,% MPE,"female Wistar rats; FCA rats, 40 mg/kg acute (day 11), 24 h",−7 % MPE
same,Dose at which anti-nociceptive effects started,"female Wistar rats; FCA rats, most prominent during first 30 min",30 mg/kg
same,"Pressure to elicit foot withdrawal, Post-operative + SPM 927",rat [4]; 20 mg/kg i.p.,39.5 ± 3.62 g/mm^2
same,"Pressure to elicit foot withdrawal, Post-operative + SPM 927",rat [4]; 40 mg/kg i.p.,42.9 ± 5.47 g/mm^2
same,Effect on mechanical allodynia induced by unilateral nerve ligation,"rat [4]; i.p., 5-40 mg/kg",dose dependently reduced the intensity of mechanical allodynia
"CN1CC[C@]23c4c5ccc(O)c4O[C@H]2[C@@H](O)C=C[C@H]3[C@H]1C5 [morphine, reference compound]",Antinociceptive effect of positive control,"female Wistar rats; 10 mg/kg, arthritic and normal animals",clear antinociceptive effects in arthritic and normal animals
same,% MPE,"female Wistar rats; FCA rats (disease condition), 10 mg/kg, 15 min",+100 % MPE
same,% MPE,"female Wistar rats; FCA rats (disease condition), 10 mg/kg, 30 min",+100 % MPE
same,% MPE,"female Wistar rats; FCA rats (disease condition), 10 mg/kg, 60 min",+100 % MPE
same,% MPE,"female Wistar rats; FCA rats (disease condition), 10 mg/kg, 24 h",−7 % MPE
same,% MPE,"female Wistar rats; no FCA (normal condition), 10 mg/kg, 15 min",+100 % MPE
same,% MPE,"female Wistar rats; no FCA (normal condition), 10 mg/kg, 30 min",+100 % MPE
same,% MPE,"female Wistar rats; no FCA (normal condition), 10 mg/kg, 60 min",+100 % MPE
same,% MPE,"female Wistar rats; no FCA (normal condition), 10 mg/kg, 24 h",+2 % MPE
